The text below walks through data of patent publication US6358736B1, “Method for increasing the antigen presenting ability of leukemia cells” (The United States of America as represented by the …, priority 1995, dated 2002).

Molecules are shown by their SMILES.

The subject of one experiment is monocytes. Kind of experiment: Calcium-chelation luminescence spectrophotometry of intracellular calcium flux. Format: cell-based, human. Particulars: indol-loaded monocytes; calcium ionophore 180-750 ng/ml. How it is done: Calcium-chelation luminescence spectrophotometry was utilized to measure intracellular calcium fluxes in monocytes. Monoytes were incubated with 5 uM/ml indol, a calcium chelating agent which emits fluorescence at different wavelengths (405 or 480 nm) depending on whether or not it is bound to cycloplasmic calcium. Increased calcium mobilization causes relative shifts in emission from one wavelength to the other. After 30 minute incubation with indol, monocytes were washed, pulsed with a variety of agents such as calcium ionophore, virus, f-MET-LEU-PHE, or LPS. To measure calcium fluxes at subsequent time intervals, cells were stimulated with a 355 nm wavelength beam, and fluorescence emission measured at 405 and 480 nm.
A general note: Calcium flux is commonly read through the fluorescence of an indicator in the cells.

Experiment [1] deals with pooled monocyte plus dendritic cell elutriation fractions. Kind of experiment: FACS analysis of pooled 150-190 elutriation (APC) fractions after calcium ionophore activation. Format: cell-based, human. Particulars: 500 ng A23187. How it is done:
Two patients were hooked up to Fenwal™ CS-3000 leukapheresis apparatus' running a Procedure 8 modification software program. Patient #1 had been previously diagnosed with colon cancer, and Patient #2 was a normal control. The Fenwal™ apparatus was configured to isolate a sample of neutrophil-depleted, platelet-rich cells from each patients' peripheral blood. After 3-5 hours of leukaphereis, the isolated blood cells from each patient were quickly spun down in a centrifuge and then rinsed in citrate buffer to remove any excess plasma, tumor related proteins or calcium.
Following the citrate buffer rinse, the cells were resuspended in EDTA-free, Ca^++/Mg^++ HBSS. The isolated cells from each patient were then subject to elutriation on a Beckman™ JE-6B elutriation rotor. Once reaching a speed of 3000 rpm, 5×10^9 cells were elutriated by pressurized air at buffer flow rates of 120, 140, 150, 160, 170, 180, 190 and 200 cc/minute.
Each fraction from both patients were immediately placed on ice to prevent cell adherence to the plastic walls of the collection vials. We coulter counted each of the fractions and discarded the r/o fraction because it had greater than a 10% contamination of neutrophils. The 150, 160, 170, 180 and 190 cc/min fractions from Patient #1 and Patient #2 were pooled then subject to calcium ionophore. The pooled fractions from each patient were divided in half, with one half being activated by 500 ng of calcium ionophore A23187 (Sigma), and one half being inactivated. From our previous experiments, we expected that the calcium ionophore treated cells would have a much higher number of dendritic cells due to conversion of monocytes to DCs. Prior to FACS analysis, we activated Patient #1's pooled fractions by incubating both the untreated and calcium ionophore treated cells for 40 hours in the presence of an autologous tumor cell lysate (the patients own tumor cells). Similarly, we activated Patient #2's pooled fractions by incubating both the untreated and calcium ionophore treated cells in the presence of keyhole limpet hemocyanin (KLH) for 40 hours.
The vast majority of cells stained in the pooled fractions were expected to be CD14+(ie: monocytes). The horizontal (X) axis of the FACS plot illustrated staining for DR, B7.1 or B72 surface antigens.

For experiment [2], the system named is monocytes / dendritic cells cocultured with allogeneic T cells. Put plainly: Allogeneic T cell sensitization (3H-thymidine) by treated monocytes/dendritic cells. The conditions noted are these: A23187 750 ng/ml, 40 hours.
Protocol: Uncultured monocytes and DC were each purified from elutriation fractions using Miltenyi microsuperparamagnetic beads; monocytes were positively selected based on CD14 expression, while dendritic cells were negatively selected based on low CD14 expression, then positively selected based on CD33 (myeloid marker) expression. Each isolated fraction was cultured for 40 hours either in medium alone or in ionophore A23187 750 ng/ml, then harvested and either FACS analyzed or microcultured with freshly prepared allogeneic T lymphocytes. Graded numbers of the cultured monocytes or dendritic cells were added to fixed numbers of T cells to compare their antigen-presenting ability. Four days later the microcultures were pulsed with ^3H-dTr and harvested 18 hours later.
Monocyte rich elutriation fractions were cultured for 40 hours with either no additives, ionophore A23187 750 ng/ml, or rhIlL-4 (1000 u/ml) and rhGM-CSF (20 ng/ml), a cytokine combination which leads monocytes to differentiate completely to dendritic cells during seven days of culture (Pickl et al, J. Immunol. 157:3850, 1996). MOMC were then harvested, irradiated (1000 rads) and cocultured in triplicate at various MOMC: T cell ratios with 10^5 allogeneic freshly prepared CD4^+ T cells in 0.2 ml RPMI with 5% AB plasma in 96 well tissue flat bottom culture plates. No cytokines were added during coculture. After 4 days [^3H]thymidine (1 μCi/well) was added and 18 hours later the wells were harvested and counted.
Monocytes in monocyte rich elutriation fractions (90-93% monocytes) were further purified using Miltenyi microsuperparagnetic beads coupled to anti-CD14. After incubation with these beads cells were applied to a magnetized column to positively select the strongly CD14^pos cells, and were enriched to >98% purity. Unpurified or purified monocytes were cultured for 40 hours in our standard culture medium with 750 ng/ml ionophore A23187, then harvested. The recovered cells were either immediately FACS analyzed or added in graded numbers to freshly prepared allogeneic T cells to assay their antigen presenting function. Four days later, the T cell cultures were pulsed with ^3H-TdR (tritiated thymidine) and harvested 18 hours later.
The next experiment concerns HUVEC. Put plainly: FACS analysis of umbilical vein endothelial cells. Type of experiment: cell-based, human. How it is done:
Endothelial cells were previously isolated from human umbilical vein (HUVEC), then cultured in IMEM with 20% fetal calf serum and rhEGF ([…]). The cells in this experiment had undergone four previous passages to confluence and were trypsinized and reseeded in T25 flasks. After four days culture to reachieve confluence individual flasks were treated with several concentrations of calcium ionophore (180, 375 and 750 ng/ml). Two days later, cells were harvested by trypsinization and analyzed.
In general terms: A flow cytometer gives signals particle by particle.

The test system of experiment [3] is monocytes cocultured with autologous CD8+ T cells. Kind of experiment: Autologous CD8+ T cell sensitization to peptide-pulsed monocytes (interferon gamma secretion). Format: cell-based, human. How it is done: Monocyte-rich elutriation fractions from healthy HLA-A2.1 donors were either untreated or treated with ionophore A23187 750 ng/ml for 40 hours, then pulsed with either the M1 influenza-derived peptide or the MART1 melanoma-derived peptide (the M1 peptide is a “recall antigen” for all HLA-A2.1^pos individuals, whereas the MART1 peptide is usually a “recall antigen” only for HLA-A2.^pos patients with melanoma). Antigen-pulsed monocytes were cocultured with freshly prepared autologous CD8^+ T cells for 8-10 days; the T cells were then harvested and cocultured with peptide-pulsed HLA-A2.1 positive T2 stimulator cells which had been pulsed 2 hours with 1 μg/ml of either the MART1 peptide, the influenza M1 derived peptide, or an irrelevant HIV peptide to assess whether specific sensitization to FLU or MART1 peptides was attained.
After 40 hours, the cells were pulsed with a tumor derived HER2neu (369-377) peptide for two hours, harvested, then FACS analyzed or cocultured for 8-10 days with naive autologous CD8^+ T cells to determine whether rapid sensitization to the HER2neu peptide could be achieved.

A further experiment has as its system HL-60 cells. Kind of experiment: FACS analysis of cell surface markers on HL-60 cells. The conditions noted are these: optimal doses, within 20 hours. Format: cell-based, human.
The mark [4] stands for this setting: colon cancer patient, 40 hours with autologous tumor cell lysate.
The mark [5] stands for this setting: normal donor, 40 hours with KLH.

As for `CNc1ccc2oc(C[C@H]3O[C@@]4(CC[C@H]3C)O[C@H]([C@H](C)C(=O)c3ccc[nH]3)[C@H](C)C[C@H]4C)nc2c1C(=O)O` [A23187], in the experiment on monocytes, the “intracellular calcium flux / mobilization” value is recorded as “marked sustained monocyte mobilization”. Moreover, in experiment [1] (setting [4]), the B7.1 expression result is “substantial but less uniform upregulation of B7.1”; the “HLA-DR and B7.2 expression” value is “marked upregulation of HLA-DR and B7.2”; the “conversion of cells to cocktail negative (dendritic) phenotype” value is reported as “vast majority of cells were now converted to cocktail negative”. For the same compound, in experiment [1] (setting [5]), the “HLA-DR, B7.1 and B7.2 expression” value was “markedly upregulated for HLA-DR, B7.1 and B7.2”; the “conversion of cells to cocktail (CD3, CD14, CD20, CD56) negative (dendritic) phenotype” value is recorded as “vast majority of these cells was now cocktail negative”. For the same compound, the “T cell sensitizing capacity of purified monocytes vs prepurified fraction cells” value in experiment [2] is given as “enhanced T cell sensitizing capacity identical on a cell numbers basis”. For the same compound, in experiment [2] (graded numbers), the “T cell sensitizing capacity of treated monocytes (allogeneic CD4+ T cells)” value is “much greater T cell sensitizing capacity”. Moreover, in experiment [2] (vs untreated), the “T cell sensitizing efficiency of purified DC” value was “only a modest increase” and the “T cell sensitizing efficiency of purified monocytes” value is listed as “a more marked enhancement”. Moreover, the “ICAM-1 and CD40 expression” value with HUVEC (375 and 750 ng/ml, two days) is “upregulated ICAM-1 and CD40 expression”. Besides, the HLA-ABC expression result in the experiment with HUVEC (two days) is reported as “unchanged”. The “B7.1, B7.2, HLA-DR and CD83 expression” value in the experiment with HUVEC (with or without ionophore treatment) is “failed to express detectable B7.1, B7.2, HLA-DR or CD83”. The “stimulation of autologous T cell response to recall antigen M1 influenza peptide, vs untreated monocytes” value in experiment [3] (A23187 750 ng/ml, 40 hours, HLA-A2.1 donors) was “equally able”. In experiment [3] (A23187 750 ng/ml, 40 hours, eight normal donors), the “sensitization of autologous T cells to MART1 peptide” value is given as “in every instance”. For the same compound, the “T cell sensitization to HER2neu (369-377) peptide” value in experiment [3] (monocytes treated 40 hours, majority of patients) was “could not be achieved”. The “expression of CD83, ICAM-1, B7.1 and B7.2” value in the experiment with HL-60 cells is “uniform de novo expression of CD83, ICAM-1, B7.1, and B7.2”.
